Measured values as given in patent US20080234324A1, “Piperidine Derivatives as Gcs Inhibitors” (priority 2004, published 2008).

Experiments:
[1] = target: T1, human recombinant GCS expressed in insect cells (Homo sapiens, UniProt Q16739); assay: Inhibition of GCS; type: biochemical
T1 construct: made in house; host or cells: insect cells
T1 sequence (Q16739 1-394): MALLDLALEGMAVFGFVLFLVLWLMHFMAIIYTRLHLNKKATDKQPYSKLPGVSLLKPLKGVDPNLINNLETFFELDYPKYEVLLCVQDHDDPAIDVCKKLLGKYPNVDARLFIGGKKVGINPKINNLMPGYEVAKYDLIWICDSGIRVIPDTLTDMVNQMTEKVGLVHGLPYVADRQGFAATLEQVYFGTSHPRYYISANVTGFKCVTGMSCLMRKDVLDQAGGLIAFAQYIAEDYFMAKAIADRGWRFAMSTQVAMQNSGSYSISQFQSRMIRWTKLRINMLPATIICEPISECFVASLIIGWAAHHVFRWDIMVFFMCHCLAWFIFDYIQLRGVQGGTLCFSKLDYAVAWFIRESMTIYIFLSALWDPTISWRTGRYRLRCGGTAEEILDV
Description: The assay for inhibition of GCS was performed essentially as described in Platt et al., J. Biol. Chem., (1994), 269, 27108, the enzyme source being human recombinant GCS expressed in insect cells.

[2] = target: T2, non-lysosomal-β-glucocerebrosidase (Homo sapiens, UniProt Q9HCG7); assay: Inhibition of non-lysosomal-β-glucocerebrosidase; type: biochemical; settings: whole cell extracts of MCF7 as enzyme source; 5 mM 4-MU β-glucoside; pH 5.8
T2 construct: whole cell extracts of MCF7 (a human breast carcinoma cell line) was used as the source of the enzyme; endogenous in cells; host or cells: MCF7 whole cell extract
T2 sequence (Q9HCG7 1-927): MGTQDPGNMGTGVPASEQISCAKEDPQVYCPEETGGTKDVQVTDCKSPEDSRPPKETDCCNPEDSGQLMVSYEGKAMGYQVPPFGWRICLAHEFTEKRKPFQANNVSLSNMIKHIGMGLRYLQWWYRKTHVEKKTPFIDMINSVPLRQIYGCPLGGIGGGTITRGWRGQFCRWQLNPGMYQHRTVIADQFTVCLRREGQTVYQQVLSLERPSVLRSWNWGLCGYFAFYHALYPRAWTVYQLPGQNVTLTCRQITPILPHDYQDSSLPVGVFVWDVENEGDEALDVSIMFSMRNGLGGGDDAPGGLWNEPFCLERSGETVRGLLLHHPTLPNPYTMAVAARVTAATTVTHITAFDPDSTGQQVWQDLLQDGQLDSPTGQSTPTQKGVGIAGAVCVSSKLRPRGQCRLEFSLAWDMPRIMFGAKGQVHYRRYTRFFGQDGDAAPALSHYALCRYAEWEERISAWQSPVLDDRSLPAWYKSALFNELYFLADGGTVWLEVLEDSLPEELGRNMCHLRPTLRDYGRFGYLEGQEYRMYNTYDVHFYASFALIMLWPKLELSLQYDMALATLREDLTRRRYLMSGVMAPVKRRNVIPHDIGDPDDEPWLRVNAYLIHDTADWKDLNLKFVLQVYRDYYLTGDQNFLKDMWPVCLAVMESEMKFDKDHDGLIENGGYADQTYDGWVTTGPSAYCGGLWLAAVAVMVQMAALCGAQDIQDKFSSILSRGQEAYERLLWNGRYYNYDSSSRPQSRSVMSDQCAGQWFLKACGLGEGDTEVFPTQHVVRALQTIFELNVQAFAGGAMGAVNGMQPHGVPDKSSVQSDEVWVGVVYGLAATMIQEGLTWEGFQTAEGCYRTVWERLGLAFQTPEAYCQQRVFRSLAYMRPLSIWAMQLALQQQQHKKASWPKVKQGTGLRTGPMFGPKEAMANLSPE

Compound: OC[C@@H]1[C@H](O)[C@H](O)[C@@H](O)CN1Cc1ccc(OCc2ccccc2)cc1 [Example 1]
- IC50 [1]: 1.3 µM
- IC50 [2]: 10 µM
